For one compound, MIC results are on record in patent US8178659B2, “Targets for the identification of antibiotics that are not susceptible to antibiotic resistance” (priority 2005, dated 2012).

The assay has as its system E. coli DH5 cells. The assay is described as follows: Minimum inhibitory concentration (MIC) of chloramphenicol in the specialized ribosome (CAT reporter) system. In kind it is cell-based. The conditions noted are these: Escherichia coli, DH5CELLS. The source says: To examine the role of potential interactions within the 530 loop (FIG. 3.1) nucleotides involved in the proposed interactions were randomly mutated using PCR and cloned into pRNA16ST, a derivative of pRNA122 (Lee et al., 1996; Lee et al., 1997). pRNA 16ST contains only the 16 S rRNA from the rrnB operon rather then the entire operon. […] In this specialized in vivo system, the chloramphenicol acetyltransferase (CAT) reporter message is translated exclusively by plasmid-derived ribosomes that cannot translate normal cellular messages (Lee et al., 1996; Lee et al., 1997). Thus, the minimal inhibitory concentration (MIC) of chloramphenicol for each mutant is correlated to the level of function of the plasmid-derived ribosomes. This allows for the selection of functional mutants on chloramphenicol containing media. Survivors were then sequenced and assayed for function by determining the MIC for each mutant.
Minimum inhibitory concentration (MIC). MICs were determined by standard methods in microtiter plates. Overnight cultures grown in LB-Ap100 were diluted and induced in the same medium containing 1 mM IPTG for two to three hours at 37° C. Approximately 10^4 induced cells were then added to wells containing LB-Ap100+IPTG (1 mM) and chloramphenicol at increasing concentrations.

SMILES strings stand for the structures. ≈ marks a conversion by molar mass, not a printed value.

Usually MIC stands for the least concentration at which growth counts as inhibited. Read a high MIC as a less susceptible organism. As to `O=C(N[C@H](CO)[C@H](O)c1ccc([N+](=O)[O-])cc1)C(Cl)Cl` [chloramphenicol], the MIC was found to be 700 µg/mL (≈ 2170 µM) (cells expressing wild-type ribosomes in the system (pRNA123)) and 15 µg/mL (≈ 46.4 µM) (uninduced wild-type plasmid (pRNA228) as well as a lethal clone).
